Data taken from patent publication US20260070887A1 (Shenzhen Zhongge Biological Technology Co., Ltd., priority 2022, published 2026).
Like-named read-outs stand apart in the source and are kept apart here.

Tests used:
[1] = tested on: OVCAR-3 cells; experiment: OVCAR-3 cell proliferation (Cell Titer-Glo, 10 days); type: cell-based, human
Outline: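 400 cells per well were seeded onto pre-dispensed compound (final 0.12 nM to 10 μM) in RPMI-1640 with 20% FBS and insulin, then co-cultured for 10 days. Viability was read as Cell Titer-Glo luminescence, inhibition was taken against 0.1% DMSO control, and IC50 came from nonlinear concentration-inhibition regression.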

[2] = PK study in ICR mice; type: in vivo, mouse; conditions: plasma, route and dose not given
Outline: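 Fasted ICR mice (3/group) dosed intravenously or by oral gavage; plasma sampled up to 24 h. Plasma levels measured by LC-MS/MS after protein precipitation. T½, AUC0-t, CL, Vss and F derived by noncompartmental analysis.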

[3] = tested on: HCT116 cells; experiment: HCT116 cell anti-proliferation assay; type: cell-based; conditions: 6 days, Cell Titer-Glo
Description: HCT116 (ATCC, CCL-247) cells were cultured in McCoy's 5a complete medium (Gibco, 12330-031) containing 10% fetal bovine serum (Gibco, 10099-141C), 100 U penicillin and 100 μg/mL streptomycin (Gibco, 15140-122). The Promega kit Cell Titer-Glo (Promega: G7572) was used in this method for test.
HCT116 cells were cultured in T75 cell flasks (Corning, 430641) and the cells were placed in a 37° C., 5% CO2 incubator. Cells were passaged when reaching a cell density of 70%-80%, approximately twice per week. To perform the experiment, the test compounds were dissolved in DMSO to prepare a 10 mM stock solution, and the test compounds were added to the 384-well cell test plate (Corning, 3765) at the predetermined concentration (19.5 nM-[…]) using ECHO. […] cells were digested and 150 cells (60 μL medium) were seeded per well in the test plate. The 384-well plate was then centrifuged at 500 rpm for 1 minute, and then placed in a 37° C., 5% CO2 incubator for 6 days of cultivation. Six days later, the cell culture plate was equilibrated for 10 minutes at room temperature, 25 μL of Cell Titer-Glo was added to each well, and the mixture was shaken and mixed well and let stand for 5 minutes. The luminescence values for samples in various wells were read using a microplate reader in Luminescence mode.
The percentage of inhibition of cell proliferation by the test compound at each concentration was calculated by comparing with the values of the control group (0.2% DMSO). The IC50 values of the compounds were obtained by concentration-inhibition rate nonlinear regression analysis of the test compounds using GraphPad Prism 9.

[4] = both sexes, mouse, read-out: AUC
[5] = both sexes, mouse, read-out: Cmax

IC50 ([1]; Homo sapiens, OVCAR-3, 240 h)	AUC [2, 4]	Cmax [2, 5]	IC50 ([3]; Homo sapiens, HCT-116, 144 h)	IC50 [1]	AUC [2]	Cmax [2]	IC50 [3]	Structure (SMILES)
50 to 500 nM	16000 ng·h/mL	4140 ng/mL	> 10 µM					O=C(Nc1ccc(F)c2c1cc1n2CCOC1)c1ccc(NS(=O)(=O)CCO)cc1N1CCC(=C(F)F)CC1 [Example 321, 2-(4-(difluoromethylene)piperidin-1-yl)-N-(6-fluoro-3,4-dihydro-1H-[1,4]oxazino[4,3-a]indol-9-yl)-4-((2-hydroxyethyl)sulfonamido)benzamide]
≤ 50 nM	52400 ng·h/mL	3580 ng/mL	> 10 µM					CC1(C)Cn2c(cc3c(NC(=O)c4ccc(NS(=O)(=O)CCO)cc4N4CCC(=C(F)F)CC4)cccc32)CO1 [Example 370, 2-(4-(difluoromethylene)piperidin-1-yl)-N-(3,3-dimethyl-3,4-dihydro-1H-[1,4]oxazino[4,3-a]indol-9-yl)-4-((2-hydroxyethyl)sulfonamido)benzamide]
≤ 50 nM	26500 ng·h/mL	3700 ng/mL	8.7 µM					O=C(Nc1cccc2c1cc1n2CCC(F)(F)C1)c1ccc(NS(=O)(=O)CCO)cc1N1CCC(=C(F)F)CC1 [Example 374, N-(8,8-difluoro-6,7,8,9-tetrahydropyridino[1,2-a]indol-1-yl)-2-(4-(difluoromethylene)piperidin-1-yl)-4-((2-hydroxyethyl)sulfonamido)benzamide]
				≤ 50 nM	48150 ng·h/mL	5253 ng/mL	> 10 µM	N#Cc1ccc(NC(=O)c2ccc(NS(=O)(=O)CCO)cc2N2CCC(=C(F)F)CC2)c2cc3n(c12)CCC(F)(F)C3 [Example 378]
				≤ 50 nM	36456 ng·h/mL	4043 ng/mL	9.8 µM	N#Cc1ccc(NC(=O)c2ccc(NS(=O)(=O)CCO)cc2N2CCC3(CC2)CC3)c2cc3n(c12)CCC(F)(F)C3 [Example 379]

Structure (SMILES)	IC50 ([1]; Homo sapiens, OVCAR-3, 240 h)	AUC [2, 4]	Cmax [2, 5]	IC50 ([3]; Homo sapiens, HCT-116, 144 h)	IC50 [1]	AUC [2]	Cmax [2]	IC50 [3]
CC1(C)Cn2c(cc3c(NC(=O)c4ccc(NS(=O)(=O)CCO)cc4N4CCC5(CC4)CC5)cccc32)CO1 [Example 371, N-(3,3-dimethyl-3,4-dihydro-1H-[1,4]oxazino[4,3-a]indol-9-yl)-4-(2-hydroxyethylsulfonamido)-2-(6-azaspiro[2.5]octan-6-yl)benzamide]	≤ 50 nM	51200 ng·h/mL	3750 ng/mL	> 10 µM				
COc1ccc(NC(=O)c2ccc(NS(=O)(=O)CCO)cc2N2CCC3(CC2)CC3)c2cc3n(c12)CC(C)(C)OC3 [Example 455, 4-((2-hydroxyethyl)sulfonamido)-N-(6-methoxy-3,3-dimethyl-3,4-dihydro-1H-[1,4]oxazinyl[4,3-a]indol-9-yl)-2-(6-azaspiro[2.5]oct-6-yl)benzamide]	≤ 50 nM	71000 ng·h/mL	5590 ng/mL	> 10 µM				
COc1ccc(NC(=O)c2ccc(NS(=O)(=O)CCO)cc2N2CCC(=C(F)F)CC2)c2cc3n(c12)CC(C)(C)OC3 [Example 465, 2-(4-(difluoromethylene)piperidin-1-yl)-4-((2-hydroxyethyl)sulfonamido)-N-(6-methoxy-3,3-dimethyl-3,4-dihydro-1H-[1,4]oxazinyl[4,3-a]indol-9-yl)benzamide]					≤ 50 nM	72111 ng·h/mL	5780 ng/mL	> 10 µM
